Like-named read-outs stand apart in the source and are kept apart here.
Assay: Phase 1 first-in-human study, plasma pharmacokinetics
Format: in vivo
Settings: for Tmax / Cmax / AUC(0-t) / half-life / AUC(0-inf): plasma
Protocol: Safety, tolerability, PK, and BTKO were assessed for six doses of compound of Formula (III) oral solution (4, 12, 36, 100, 200, 400 mg) in participants under fasted conditions. The SAD part comprised 10 cohorts of 8 participants each (FIG. 1). In each cohort receiving compound of Formula (III) oral solution (Cohorts 1-9), 6 participants were randomized to receive compound of Formula (III) and 2 to receive placebo. All participants in Cohort 10 received compound of Formula (III) as an oral capsule. All 10 cohorts included 2 sentinel participants who were dosed ˜24 hours prior to the rest of the cohort. In cohorts receiving compound of Formula (III) oral solution, 1 sentinel participant received compound of Formula (III) and the other received placebo.
Six male escalating dose cohorts received a single oral dose of 4, 12, 36, 100, 200, 400 mg compound of Formula (III) or placebo solution under fasted conditions. Gender effects were assessed in 2 female cohorts whose participants received either a 36 or 100 mg dose of compound of Formula (III) or placebo as an oral solution under fasted conditions. Food effects were evaluated in a male cohort receiving compound of Formula (III) 100 mg or placebo as an oral solution after a high-fat breakfast.
Safety, tolerability, and PK of a solid dose formulation of compound of Formula (III) were assessed in an additional male cohort (Cohort 10) that received 3×35 mg (105 mg) of compound of Formula (III) in the fasted state. Since all the participants received the same dose of compound of Formula (III), this cohort was not blinded.
Safety, tolerability, PK, and BTKO following multiple compound of Formula (III) doses were evaluated in 3 dose escalation cohorts with a total of 18 participants (males: 9, females: 9) receiving active study drug. In each cohort, 3 males and 3 females were randomized to receive 36 mg once-daily (QD), 100 mg QD, or 200 mg QD compound of Formula (III) oral solution and 3 participants (males: 2; female: 1) to receive placebo. Two male participants in each cohort served as sentinel participants: one received compound of Formula (III) and other received placebo ˜48 hours prior to other participants in the cohort. All safety and tolerability data (through the follow-up visit), PK data (through at least 24 hours after last dose administration), and all available PD data were reviewed from each cohort before a decision was made to dose escalate.
Sample collection—For the PK assessment of compound of Formula (III), venous blood samples (2 to 4 mL each) were collected predose and at 15 min, 0.5, 1, 1.5, 2, 2.5, 3, 4, 6, 8, 12, 24, 36, 48, and 72 hours post-dose in Part 1. In Part 2, samples were collected predose and at 15 min, 0.5, 1, 1.5, 2, 2.5, 3, 4, 6, 8, 12 hours post-dose on day 1, predose and 1 hour post-dose on days 2-9, and predose and at 15 min, 0.5, 1, 1.5, 2, 2.5, 3, 4, 6, 8, 12, 24, 48, and 72 hours after the last dose on day 10. Plasma samples were analyzed to determine concentrations of compound of Formula (III) using a scientific validated, specific, and sensitive liquid chromatography-mass spectrometry (LC-MS/MS) method.
The PK analysis for the compound of Formula (III) samples was performed using a non-compartmental method with validated Phoenix® WinNonlin® (version 8.0, Certara L.P.).

[1] = 36 mg QD oral solution, fed, Day 10
[2] = 100 mg QD oral solution, fed, Day 10
[3] = 200 mg QD oral solution, fed, Day 10
[4] = female, human, po, 36 mg, single 36 mg oral solution, female fasted
[5] = female, human, po, 100 mg, single 100 mg oral solution, female fasted
[6] = male, human, po, 4 mg, single 4 mg oral solution, male fasted
[7] = male, human, po, 12 mg, single 12 mg oral solution, male fasted

In the case of C=CC(=O)N[C@H]1CCC[C@H]1NC(=O)c1sc2nccc3c2c1NC(=O)N3c1cnc(CC(C)C)cc1C (atropisomer, axis not shown) [compound of Formula (III), N-((1R,2S)-2-Acrylamidocyclopentyl)-5-(S)-(6-isobutyl-4-methylpyridin-3-yl)-4-oxo-4,5-dihydro-3H-1-thia-3,5,8-triazaacenaphthylene-2-carboxamide], the ARCmax [1] is reported as 1.04, the Cmin [1] is reported as 0.552 ng/mL and the ARCmax [2] is reported as 0.968. The Cmin [2] was 1.51 ng/mL, the “mean Cmax/Dose lower, capsule vs oral solution” value (105 mg capsule vs 100 mg solution) was “approximately 64%” and the Ae% dose (200 mg QD oral solution, fed, Day 1) was 0.234. The ARCmax [3] was 1.21, the Ae% dose [3] was 0.234 and the CLR [3] was 0.186 L/h. It also gave a Cmin [3] of 4.96 ng/mL, a Tmax (both sexes, human, oral, Part 2, day 1, 36-200 mg QD, read-out: median tmax across doses) of 1.25 to 1.77 h and a Cmax (both sexes, human, po, 36 mg, 36 mg QD oral solution, fed, Day 1) of 193 ng/mL. It also gave an AUC(0-t) (both sexes, human, po, 36 mg, 36 mg QD oral solution, fed, Day 1, read-out: AUC0-24 h) of 925 ng·h/mL, a Tmax (both sexes, human, po, 36 mg, 36 mg QD oral solution, fed, Day 1, read-out: tmax, median (min-max)) of 1.5 h and a Cmax (both sexes, human, po, 36 mg, 36 mg QD oral solution, fed, Day 10) of 199 ng/mL. The AUC(0-t) (both sexes, human, po, 36 mg, 36 mg QD oral solution, fed, Day 10, read-out: AUC0-24 h) was 889 ng·h/mL, the half-life (both sexes, human, po, 36 mg, 36 mg QD oral solution, fed, Day 10, read-out: t1/2, dom (converted)) was 1.5 h and the half-life (both sexes, human, po, 36 mg, 36 mg QD oral solution, fed, Day 10, read-out: t1/2, λz (converted)) was 4.9 h. The Tmax (both sexes, human, po, 36 mg, 36 mg QD oral solution, fed, Day 10, read-out: tmax, median (min-max)) was 2 h, the Cmax (both sexes, human, po, 100 mg, 100 mg QD oral solution, fed, Day 1) was 464 ng/mL and the AUC(0-t) (both sexes, human, po, 100 mg, 100 mg QD oral solution, fed, Day 1, read-out: AUC0-24 h) was 1820 ng·h/mL. It also gave a Tmax (both sexes, human, po, 100 mg, 100 mg QD oral solution, fed, Day 1, read-out: tmax, median (min-max)) of 1.25 h, a Cmax (both sexes, human, po, 100 mg, 100 mg QD oral solution, fed, Day 10) of 424 ng/mL and an AUC(0-t) (both sexes, human, po, 100 mg, 100 mg QD oral solution, fed, Day 10, read-out: AUC0-24 h) of 1690 ng·h/mL. For the same molecule, the half-life (both sexes, human, po, 100 mg, 100 mg QD oral solution, fed, Day 10, read-out: t1/2, dom (converted)) was 1.8 h, the half-life (both sexes, human, po, 100 mg, 100 mg QD oral solution, fed, Day 10, read-out: t1/2, λz (converted)) was 9.6 h and the Tmax (both sexes, human, po, 100 mg, 100 mg QD oral solution, fed, Day 10, read-out: tmax, median (min-max)) was 1.53 h. The Cmax (both sexes, human, po, 200 mg, 200 mg QD oral solution, fed, Day 1) was 719 ng/mL, the AUC(0-t) (both sexes, human, po, 200 mg, 200 mg QD oral solution, fed, Day 1, read-out: AUC0-24 h) was 2560 ng·h/mL and the Tmax (both sexes, human, po, 200 mg, 200 mg QD oral solution, fed, Day 1, read-out: tmax, median (min-max)) was 1.77 h. It also gave a Cmax (both sexes, human, po, 200 mg, 200 mg QD oral solution, fed, Day 10) of 839 ng/mL, an AUC(0-t) (both sexes, human, po, 200 mg, 200 mg QD oral solution, fed, Day 10, read-out: AUC0-24 h) of 3160 ng·h/mL and a half-life (both sexes, human, po, 200 mg, 200 mg QD oral solution, fed, Day 10, read-out: t1/2, dom (converted)) of 1.9 h. It also gave a half-life (both sexes, human, po, 200 mg, 200 mg QD oral solution, fed, Day 10, read-out: t1/2, λz (converted)) of 23.1 h, a Tmax (both sexes, human, po, 200 mg, 200 mg QD oral solution, fed, Day 10, read-out: tmax, median (min-max)) of 2 h and a CL renal (both sexes, human, urine and plasma, 200 mg QD oral solution, fed, Day 1) of 3.1 mL/min. The AUC(0-inf) [4] was 22.7 ng·h/mL, the Cmax [4] was 233 ng/mL and the AUC(0-t) (female, human, po, 36 mg, single 36 mg oral solution, female fasted, read-out: AUC0-24 h) was 819 ng·h/mL. It also gave an AUC(0-t) (female, human, po, 36 mg, single 36 mg oral solution, female fasted, read-out: AUClast) of 816 ng·h/mL, a half-life (female, human, po, 36 mg, single 36 mg oral solution, female fasted, read-out: t1/2, dom (converted)) of 1.6 h and a half-life (female, human, po, 36 mg, single 36 mg oral solution, female fasted, read-out: t1/2, λz (converted)) of 1.9 h. It also gave a Tmax (female, human, po, 36 mg, single 36 mg oral solution, female fasted, read-out: tmax, median (min-max)) of 1 h, an AUC(0-inf) [5] of 1340 ng·h/mL and a Cmax [5] of 650 ng/mL. It also gave an AUC(0-t) (female, human, po, 100 mg, single 100 mg oral solution, female fasted, read-out: AUC0-24 h) of 1420 ng·h/mL, an AUC(0-t) (female, human, po, 100 mg, single 100 mg oral solution, female fasted, read-out: AUClast) of 1460 ng·h/mL and a half-life (female, human, po, 100 mg, single 100 mg oral solution, female fasted, read-out: t1/2, dom (converted)) of 1.6 h. The half-life (female, human, po, 100 mg, single 100 mg oral solution, female fasted, read-out: t1/2, λz (converted)) was 11.6 h, the Tmax (female, human, po, 100 mg, single 100 mg oral solution, female fasted, read-out: tmax, median (min-max)) was 0.5 h and the AUC(0-inf) [6] was 155 ng·h/mL. The Cmax [6] was 43.5 ng/mL, the AUC(0-t) (male, human, po, 4 mg, single 4 mg oral solution, male fasted, read-out: AUC0-24 h) was 157 ng·h/mL and the AUC(0-t) (male, human, po, 4 mg, single 4 mg oral solution, male fasted, read-out: AUClast) was 154 ng·h/mL. The half-life (male, human, po, 4 mg, single 4 mg oral solution, male fasted, read-out: t1/2, dom (converted)) was 1.6 h, the half-life (male, human, po, 4 mg, single 4 mg oral solution, male fasted, read-out: t1/2, λz (converted)) was 1.6 h and the Tmax (male, human, po, 4 mg, single 4 mg oral solution, male fasted, read-out: tmax, median (min-max)) was 1 h. The AUC(0-inf) [7] was 317 ng·h/mL, the Cmax [7] was 88 ng/mL and the AUC(0-t) (male, human, po, 12 mg, single 12 mg oral solution, male fasted, read-out: AUC0-24 h) was 319 ng·h/mL. For the same molecule, the AUC(0-t) (male, human, po, 12 mg, single 12 mg oral solution, male fasted, read-out: AUClast) was 316 ng·h/mL and the half-life (male, human, po, 12 mg, single 12 mg oral solution, male fasted, read-out: t1/2, dom (converted)) was 1.5 h.

— US12622910B2, “Inhibitors of Bruton's tyrosine kinase and methods of their use” (Janssen Pharmaceutica NV, priority 2021, dated 2026)
